{
  "source": "paper PMC10848157",
  "about": "“Assessing NH300094, a novel dopamine and serotonin receptor modulator with cognitive enhancement property for treating schizophrenia” (Frontiers in Pharmacology, 2024)",
  "key": {"5-HT2C receptor": {"target": "T1, 5-HT2C receptor (Homo sapiens, UniProt P28335)", "T1 sequence (P28335 33-458)": "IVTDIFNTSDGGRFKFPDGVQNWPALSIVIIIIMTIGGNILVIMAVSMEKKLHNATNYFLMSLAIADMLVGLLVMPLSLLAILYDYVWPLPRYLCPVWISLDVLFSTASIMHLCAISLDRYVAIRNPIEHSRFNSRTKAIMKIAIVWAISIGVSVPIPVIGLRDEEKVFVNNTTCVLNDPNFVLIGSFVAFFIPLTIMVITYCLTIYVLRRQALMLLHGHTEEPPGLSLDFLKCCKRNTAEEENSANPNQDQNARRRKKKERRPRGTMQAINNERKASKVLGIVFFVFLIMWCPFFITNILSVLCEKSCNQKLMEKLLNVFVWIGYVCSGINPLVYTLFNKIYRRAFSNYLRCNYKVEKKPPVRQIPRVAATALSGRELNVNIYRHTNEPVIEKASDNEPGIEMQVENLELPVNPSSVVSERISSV", "assay": "5-HT2C receptor functional assay (calcium flow, FLIPR)", "format": "cell-based", "settings": "HEK293/5-HT2C cells, read-out: 5HT2cR, IC50"}, "5-HT1B receptor": {"target": "5-HT1B receptor (Homo sapiens, UniProt P28222)", "sequence (P28222 whole entry)": "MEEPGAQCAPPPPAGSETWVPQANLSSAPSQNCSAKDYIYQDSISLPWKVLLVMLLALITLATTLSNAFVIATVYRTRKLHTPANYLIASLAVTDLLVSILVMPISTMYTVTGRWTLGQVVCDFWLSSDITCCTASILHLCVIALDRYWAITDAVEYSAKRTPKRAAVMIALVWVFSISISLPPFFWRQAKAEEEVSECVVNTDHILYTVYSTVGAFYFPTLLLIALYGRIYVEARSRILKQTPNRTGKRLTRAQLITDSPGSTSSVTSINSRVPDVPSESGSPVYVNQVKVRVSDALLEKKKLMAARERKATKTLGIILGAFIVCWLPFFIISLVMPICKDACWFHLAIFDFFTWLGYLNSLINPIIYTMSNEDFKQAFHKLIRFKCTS", "assay": "5-HT1B receptor functional assay (cAMP assay, inverse agonist)", "format": "cell-based", "settings": "inverse agonist activity, CHO-K1/5-HT1B cells, read-out: 5HT1BR, EC50"}, "male ICR mice [1]": {"tested_on": "male ICR mice", "assay": "DOI-induced head twitch in mice"}, "male ICR mice [2]": {"tested_on": "male ICR mice", "assay": "APO-induced climbing in mice"}, "male Wistar rats": {"tested_on": "male Wistar rats", "assay": "Conditioned avoidance response test in rats", "format": "in vivo", "settings": "Rattus norvegicus, single oral dose, read-out: ED50, inhibition of conditioned avoidance response", "excerpt": "Shuttle-box Avoidance Test Video Analysis System (DigBehv-SBG, Shanghai Jiliang Software Technology Co. Ltd.) were used to assess the rats conditioned avoidance response.\nPhase I: The rats responded to the conditioned stimulus (auditory and visual) by training with foot shock reinforcement. Briefly, rats were placed into the CAR shuttle boxes for a 5-min habituation followed by 30 trials presented on a 20-s variable interval (20–30 s) stimulus. Each rats were subjected to a conditioned stimulus which consisted of 10s presentation of light and white noise, and then followed by a scrambled 1.5 mA foot shock for 10 s. […] Rats with avoidance rates greater than 70% for 3 consecutive days were included in this study post-training.\nPhase II: The qualified rats were randomly divided into 7 groups. […] The procedure in the testing phase was the same as the Phase I described. The number of avoidances, escapes, and escape failures were recorded."}, "male ICR mice [3]": {"tested_on": "male ICR mice", "assay": "MK-801-induced hyperactivity in mice", "format": "in vivo", "settings": "single oral dose", "description": "Immediately after injection with either saline or MK-801 (0.3 mg/kg, i.p.), the mice were placed into the test chambers (29 cm × 29 cm × 30 cm) for 60 min of locomotion recording using a tracking and computerized analysis system (TopScan Version 3.00, Clever Sys Inc., Leesburg, VA)."}, "male ICR mice [4]": {"tested_on": "male ICR mice", "assay": "Forced swimming test in mice", "format": "in vivo", "settings": "single oral dose; NH300094 0.03 mg/kg; risperidone 0.01, 0.03 and 0.1 mg/kg", "description": "Each mouse was required to swim in an open cylindrical container (height of 25 cm, diameter of 10 cm) after intragastric administration of compounds 1 h. The container contained 1.2 L of water with temperature maintained at 24°C ± 1°C. The test used a computerized analysis and tracking system (Clever Sys Inc., Leesburg, VA) to recorded the duration of immobility (last 4 min of a total time of 6 min) about the testing mice."}, "male ICR mice [5]": {"tested_on": "male ICR mice", "assay": "Novel object recognition in scopolamine hydrobromide-treated mice", "format": "in vivo", "settings": "NOR; NH300094 0.01–0.16 mg/kg p.o.; risperidone 0.04, 0.08, 0.16 mg/kg p.o.; rivastigmine 0.3 and 1 mg/kg i.p.", "description": "The procedure was modified according to Bevins and Besheer ([Bevins and Besheer, 2006]). […] The tests were conducted in a 50 cm × 35 cm × 20 cm chamber and the mice behavior was recording using a Hikvision video recording system (H.265, Hikvision Digtial Technology Co., Ltd.). All mice were allowed to freely explore the chamber environment for 10 min, and there were no objects placed in the chamber during acclimatization period. […] Rivastigmine hydrogen tartrate group (0.1, 0.3 and 1 mg/kg, i.p.) were dosed simultaneously with scopolamine hydrobromide (3 mg/kg, i.p.). Training was conducted 30 min post scopolamine hydrobromide administration by placing a single mouse into a chamber for 10 min with two exactly same objects positioned in the center of chamber. (The distance between the two objects was more than 20 cm). […]\nThe experimental video was analyzed to record the time of mice exploring the new and old objects, respectively, and the differentiation index (DI) was calculated as follows: DI = new object exploration time/(new object exploration time + old object exploration time), which was used as the main evaluation index of discrimination ability. […] If the total exploration time of the new and old objects was less than 20 s, the total 10 min of video would be analyzed. […] The movement of circling without sniffing or sitting on the object was not recorded as exploration behavior."}, "[6]": {"settings": "single oral dose, male ICR mice"}},
  "note": "Counter-ions that a name gives are not always drawn.",
  "data": [
    {"smiles": "CSc1ccc2c(c1)C(N1CCN(C)CC1)Cc1ccccc1S2", "note": "(centres unmarked) [Methiothepin, reference compound]", "values": [
      {"measurement": "IC50", "setting": "5-HT2C receptor", "result": 39.7, "unit": "nM"},
      {"measurement": "EC50", "setting": "5-HT1B receptor", "result": "22.3 ± 9.69", "unit": "nM"}
    ]},
    {"smiles": "Cc1nc2n(c(=O)c1CCN1CCC(c3noc4cc(F)ccc34)CC1)CCCC2", "note": "[Risperidone, risperidone, reference compound]", "values": [
      {"measurement": "ED50", "setting": "male ICR mice [1]; Mus musculus, po, read-out: ED50, inhibition of DOI-induced head twitch, single oral dose, male ICR mice, DOI 1 mg/kg", "result": "~0.002", "unit": "mg/kg"},
      {"measurement": "MED, DOI-induced head twitch", "setting": "male ICR mice [1]; [6]", "result": 0.001, "unit": "mg/kg"},
      {"measurement": "ED50", "setting": "male ICR mice [2]; Mus musculus, read-out: ED50, inhibition of APO-induced climbing", "result": "~0.1", "unit": "mg/kg"},
      {"measurement": "MED, APO-induced climbing", "setting": "male ICR mice [2]; [6]", "result": 0.1, "unit": "mg/kg"},
      {"measurement": "ED50", "setting": "male Wistar rats", "result": "~0.7", "unit": "mg/kg"},
      {"measurement": "ED50", "setting": "male ICR mice [3]; Mus musculus, MK-801 0.3 mg/kg i.p., read-out: ED50, inhibition of MK-801-induced hyperactivity", "result": "~0.08", "unit": "mg/kg"},
      {"measurement": "Minimum effective dose (MED), MK-801-induced hyperactivity", "setting": "male ICR mice [3]", "result": 0.1, "unit": "mg/kg"},
      {"measurement": "effect on immobility time in the FST", "setting": "male ICR mice [4]", "result": "did not affect the immobility time"}
    ]},
    {"smiles": "CCN(C)C(=O)Oc1cccc([C@H](C)N(C)C)c1", "note": "[rivastigmine bitartrate, rivastigmine hydrogen tartrate, reference compound]", "values": [
      {"measurement": "effect on differentiation index (DI) of scopolamine hydrobromide-treated mice", "setting": "male ICR mice [5]", "result": "significantly enhanced learning and memory ability"}
    ]}
  ]
}
